Measurements: patent US20220340597A1, “HEXAHYDRO-1H-PYRAZINO[1,2-A]PYRAZINE COMPOUNDS FOR THE TREATMENT OF AUTOIMMUNE DISEASE” (Hoffmann-La Roche Inc., priority 2019, published 2022)
pIC50: −log10 of the molar value.

Assays:
human TLR7 = molecular target: T1, human TLR7 (Homo sapiens, UniProt Q9NYK1); assay: HEK293-Blue-hTLR-7 cells assay; format: cell-based; details: HEK293-Blue-hTLR7 cells, R848 stimulation, 20 hrs, SEAP reporter; read-out: HEK/hTLR7 IC50
T1 construct: host or cells: HEK293 (HEK-Blue hTLR7)
T1 sequence (Q9NYK1 27-1049): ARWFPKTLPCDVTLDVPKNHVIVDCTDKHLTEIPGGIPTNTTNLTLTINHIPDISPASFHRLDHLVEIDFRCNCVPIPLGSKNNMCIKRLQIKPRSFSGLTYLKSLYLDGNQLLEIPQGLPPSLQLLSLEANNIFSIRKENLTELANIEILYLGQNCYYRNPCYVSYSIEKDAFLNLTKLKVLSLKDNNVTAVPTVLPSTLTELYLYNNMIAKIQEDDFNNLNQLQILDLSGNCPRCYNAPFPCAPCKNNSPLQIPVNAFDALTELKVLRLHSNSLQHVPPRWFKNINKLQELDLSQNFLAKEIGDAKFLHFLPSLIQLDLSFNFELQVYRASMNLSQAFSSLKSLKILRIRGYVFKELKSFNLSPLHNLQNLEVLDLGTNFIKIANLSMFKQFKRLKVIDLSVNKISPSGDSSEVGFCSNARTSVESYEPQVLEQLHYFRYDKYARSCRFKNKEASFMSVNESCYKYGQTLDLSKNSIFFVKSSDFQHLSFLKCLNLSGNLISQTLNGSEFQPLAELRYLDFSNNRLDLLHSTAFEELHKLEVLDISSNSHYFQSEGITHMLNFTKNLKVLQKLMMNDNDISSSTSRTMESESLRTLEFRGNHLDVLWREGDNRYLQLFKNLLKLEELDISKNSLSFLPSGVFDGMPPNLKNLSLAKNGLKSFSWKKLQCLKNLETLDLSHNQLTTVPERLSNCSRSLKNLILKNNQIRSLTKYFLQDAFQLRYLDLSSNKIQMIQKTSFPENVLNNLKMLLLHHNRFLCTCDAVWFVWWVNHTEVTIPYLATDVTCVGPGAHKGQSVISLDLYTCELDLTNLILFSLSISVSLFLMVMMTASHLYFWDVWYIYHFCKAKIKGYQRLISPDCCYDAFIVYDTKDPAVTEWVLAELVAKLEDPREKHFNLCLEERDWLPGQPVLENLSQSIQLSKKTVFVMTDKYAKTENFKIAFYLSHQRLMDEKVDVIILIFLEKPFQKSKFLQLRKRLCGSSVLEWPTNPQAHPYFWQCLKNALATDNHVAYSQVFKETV

hERG channel = molecular target: T2, hERG channel (Homo sapiens, UniProt Q12809); assay: hERG channel inhibition assay (patch-clamp, CHOhERG cells); format: cell-based; details: for pIC50 / IC20: CHOhERG cells, whole-cell patch-clamp; for IC20: human, CHO cells stably expressing hERG (CHOhERG); for hERG IC20/TLR7 IC50 / hERG IC20/TLR8 IC50 / hERG IC20/TLR9 IC50: safety ratio
T2 construct: expressed in transfected cells; host or cells: CHO (Chinese hamster ovary), CHOhERG
Procedure, shortened: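 Whole-cell voltage-clamp recordings of IKhERG in CHO cells stably expressing human hERG, stimulated at 0.1 Hz. Compound applied at rising concentrations, each held 3–10 min to reach steady state; current amplitude and kinetics compared with pre-drug control set as 100%.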

T2 sequence (Q12809 whole entry): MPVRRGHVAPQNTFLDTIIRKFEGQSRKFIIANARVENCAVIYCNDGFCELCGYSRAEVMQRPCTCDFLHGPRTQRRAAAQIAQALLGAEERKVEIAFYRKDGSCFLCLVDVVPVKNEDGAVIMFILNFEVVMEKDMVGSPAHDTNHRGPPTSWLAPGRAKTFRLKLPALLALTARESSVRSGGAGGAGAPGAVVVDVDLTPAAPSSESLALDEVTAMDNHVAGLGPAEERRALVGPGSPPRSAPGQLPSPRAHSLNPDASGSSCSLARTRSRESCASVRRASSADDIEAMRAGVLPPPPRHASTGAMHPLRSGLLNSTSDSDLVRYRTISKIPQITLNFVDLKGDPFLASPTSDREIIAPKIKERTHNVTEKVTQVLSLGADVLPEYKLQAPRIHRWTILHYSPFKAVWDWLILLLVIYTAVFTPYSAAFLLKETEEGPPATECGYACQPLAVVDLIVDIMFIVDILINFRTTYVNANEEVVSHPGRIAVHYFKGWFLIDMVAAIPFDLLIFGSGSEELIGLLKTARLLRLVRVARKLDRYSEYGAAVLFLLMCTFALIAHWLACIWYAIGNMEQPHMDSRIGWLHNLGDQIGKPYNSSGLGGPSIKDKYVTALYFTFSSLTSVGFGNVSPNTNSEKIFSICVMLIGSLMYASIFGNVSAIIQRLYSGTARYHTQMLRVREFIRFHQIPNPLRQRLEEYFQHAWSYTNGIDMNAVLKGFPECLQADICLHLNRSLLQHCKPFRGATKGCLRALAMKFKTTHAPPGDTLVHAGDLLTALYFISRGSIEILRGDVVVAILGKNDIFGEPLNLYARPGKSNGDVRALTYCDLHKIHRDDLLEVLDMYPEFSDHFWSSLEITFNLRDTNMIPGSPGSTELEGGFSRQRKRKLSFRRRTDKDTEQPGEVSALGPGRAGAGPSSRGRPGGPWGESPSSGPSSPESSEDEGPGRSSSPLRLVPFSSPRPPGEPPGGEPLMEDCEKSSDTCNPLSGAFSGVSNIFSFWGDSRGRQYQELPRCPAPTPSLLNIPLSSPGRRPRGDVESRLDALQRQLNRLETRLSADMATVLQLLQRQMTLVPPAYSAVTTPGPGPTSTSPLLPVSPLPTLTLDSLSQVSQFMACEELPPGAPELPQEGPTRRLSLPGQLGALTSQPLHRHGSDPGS

Row | Compound | pIC50 (human TLR7) | other results
1 | [2H]c1ccc2c(N3C[C@@H]4CN(CCc5ccc(N6CC[C@@](C)(N)C6)nc5)CCN4[C@H](C)C3)ccc(C#N)c2n1 [Example 84, 5-[(4R,9aS)-8-[2-[6-[(3R)-3-amino-3-methyl-pyrrolidin-1-yl]-3-pyridyl]ethyl]-4-methyl-3,4,6,7,9,9a-hexahydro-1H-pyrazino[1,2-a]pyrazin-2-yl]-2-deuterio-quinoline-8-carbonitrile] | 7.80 | –
2 | [2H]c1ccc2c(N3C[C@@H]4CN(c5ncc(N6CC[C@@](C)(N)C6)cc5C)CCN4[C@H](C)C3)ccc(C#N)c2n1 [Example 97, 5-[(4R,9aR)-8-[5-[(3R)-3-amino-3-methyl-pyrrolidin-1-yl]-3-methyl-2-pyridyl]-4-methyl-3,4,6,7,9,9a-hexahydro-1H-pyrazino[1,2-a]pyrazin-2-yl]-2-deuterio-quinoline-8-carbonitrile] | 8.70 | –
3 | [2H]c1ccc2c(N3C[C@@H]4CN(Cc5ccc(N6C[C@H]7NCCO[C@@H]7C6)nc5C)CCN4[C@H](C)C3)ccc(C#N)c2n1 [Example 98, 5-[(4R,9aS)-8-[[6-[(4aR,7aR)-3,4,4a,5,7,7a-hexahydro-2H-pyrrolo[3,4-b][1,4]oxazin-6-yl]-2-methyl-3-pyridyl]methyl]-4-methyl-3,4,6,7,9,9a-hexahydro-1H-pyrazino[1,2-a]pyrazin-2-yl]-2-deuterio-quinoline-8-carbonitrile] | 7.62 | pIC50 (hERG channel): < 4.70; IC20 (hERG channel): > 10000 nM; hERG IC20/TLR7 IC50 (hERG channel): >416; hERG IC20/TLR8 IC50 (hERG channel): >1000; hERG IC20/TLR9 IC50 (hERG channel): >172
4 | [2H]c1ccc2c(N3C[C@@H]4CN(Cc5ccc(N6CC7CCC(C6)N7)nc5C)CCN4[C@H](C)C3)ccc(C#N)c2n1 [Example 91, 5-[(4R,9aS)-8-[[6-(3,8-diazabicyclo[3.2.1]octan-3-yl)-2-methyl-3-pyridyl]methyl]-4-methyl-3,4,6,7,9,9a-hexahydro-1H-pyrazino[1,2-a]pyrazin-2-yl]-2-deuterio-quinoline-8-carbonitrile] | 7.82 | –
5 | C[C@@H]1CN(c2ccc(C#N)c3ncccc23)C[C@@H]2CN(Cc3ccnc(N4CCNCC4)c3)CCN21 (relative stereo) [Example 3] | 7.70 | –
6 | Cc1cc(N2CCNCC2)cnc1N1CCN2[C@@H](C1)CN(c1cc(=O)n(C)c3ncccc13)C[C@H]2C [Example 93, 4-[(4R,9aR)-4-methyl-8-(3-methyl-5-piperazin-1-yl-2-pyridyl)-3,4,6,7,9,9a-hexahydro-1H-pyrazino[1,2-a]pyrazin-2-yl]-1-methyl-1,8-naphthyridin-2-one] | 8.00 | pIC50 (hERG channel): < 4.70; IC20 (hERG channel): > 10000 nM; hERG IC20/TLR7 IC50 (hERG channel): >1000; hERG IC20/TLR8 IC50 (hERG channel): >163; hERG IC20/TLR9 IC50 (hERG channel): >53
7 | [2H]c1ccc2c(N3C[C@@H]4CN(c5ncc(N6C[C@@H](N)[C@@H](OC)C6)cc5C)CCN4[C@H](C)C3)ccc(C#N)c2n1 [Example 96, 5-[(4R,9aR)-8-[5-[(3R,4S)-3-amino-4-methoxy-pyrrolidin-1-yl]-3-methyl-2-pyridyl]-4-methyl-3,4,6,7,9,9a-hexahydro-1H-pyrazino[1,2-a]pyrazin-2-yl]-2-deuterio-quinoline-8-carbonitrile] | 8.70 | –
8 | Cc1nc(N2CCN[C@H](C)C2)ccc1CN1CCN2[C@@H](C1)CN(c1ccc(C#N)c3ncccc13)C[C@H]2C [Example 86, 5-[(4R,9aS)-4-methyl-8-[[2-methyl-6-[(3R)-3-methylpiperazin-1-yl]-3-pyridyl]methyl]-3,4,6,7,9,9a-hexahydro-1H-pyrazino[1,2-a]pyrazin-2-yl]quinoline-8-carbonitrile] | 7.82 | –
9 | [2H]c1ccc2c(N3C[C@@H]4CN(Cc5ccc(N6CC[C@@](C)(N)C6)nc5C)CCN4[C@H](C)C3)ccc(C#N)c2n1 [Example 81, 5-[(4R,9aS)-8-[[6-[(3R)-3-amino-3-methyl-pyrrolidin-1-yl]-2-methyl-3-pyridyl]methyl]-4-methyl-3,4,6,7,9,9a-hexahydro-1H-pyrazino[1,2-a]pyrazin-2-yl]-2-deuterio-quinoline-8-carbonitrile] | 7.80 | –
10 | [2H]c1ccc2c(N3C[C@@H]4CN(c5ncc(N6C[C@@H]7C[C@H]6CN7)cc5C)CCN4[C@H](C)C3)ccc(C#N)c2n1 [Example 95, 5-[(4R,9aR)-8-[5-[(1S,4S)-2,5-diazabicyclo[2.2.1]heptan-2-yl]-3-methyl-2-pyridyl]-4-methyl-3,4,6,7,9,9a-hexahydro-1H-pyrazino[1,2-a]pyrazin-2-yl]-2-deuterio-quinoline-8-carbonitrile] | 8.70 | –
11 | [2H]c1ccc2c(N3C[C@@H]4CN(CCc5ccnc(N6C[C@@H](N)[C@@H](F)C6)c5)CCN4[C@H](C)C3)ccc(C#N)c2n1 [Example 89, 5-[(4R,9aS)-8-[2-[2-[(3R,4S)-3-amino-4-fluoro-pyrrolidin-1-yl]-4-pyridyl]ethyl]-4-methyl-3,4,6,7,9,9a-hexahydro-1H-pyrazino[1,2-a]pyrazin-2-yl]-2-deuterio-quinoline-8-carbonitrile] | 7.55 | –
12 | [2H]c1ccc2c(N3C[C@@H]4CN(c5ncc(N6C[C@@H](N)[C@H](OC)C6)cc5C)CCN4[C@H](C)C3)ccc(C#N)c2n1 [Example 99, 5-[(4R,9aR)-8-[5-[(3R,4R)-3-amino-4-methoxy-pyrrolidin-1-yl]-3-methyl-2-pyridyl]-4-methyl-3,4,6,7,9,9a-hexahydro-1H-pyrazino[1,2-a]pyrazin-2-yl]-2-deuterio-quinoline-8-carbonitrile] | 9.00 | –
13 | [2H]c1ccc2c(N3C[C@@H]4CN(c5ncc(N6C[C@H]7NCCO[C@@H]7C6)cc5C)CCN4[C@H](C)C3)ccc(C#N)c2n1 [Example 100, 5-[(4R,9aR)-8-[5-[(4aR,7aR)-3,4,4a,5,7,7a-hexahydro-2H-pyrrolo[3,4-b][1,4]oxazin-6-yl]-3-methyl-2-pyridyl]-4-methyl-3,4,6,7,9,9a-hexahydro-1H-pyrazino[1,2-a]pyrazin-2-yl]-2-deuterio-quinoline-8-carbonitrile] | 9.00 | –
14 | [2H]c1ccc2c(N3C[C@@H]4CN(Cc5nc(N6CCNCC6)ccc5C)CCN4[C@H](C)C3)ccc(C#N)c2n1 [Example 88, 5-[(4R,9aS)-4-methyl-8-[(3-methyl-6-piperazin-1-yl-2-pyridyl)methyl]-3,4,6,7,9,9a-hexahydro-1H-pyrazino[1,2-a]pyrazin-2-yl]-2-deuterio-quinoline-8-carbonitrile] | 7.40 | –
15 | [2H]c1ccc2c(N3C[C@@H]4CN(Cc5ccc(N6CC7CC(C6)N7)nc5C)CCN4[C@H](C)C3)ccc(C#N)c2n1 [Example 90, 5-[(4R,9aS)-8-[[6-(3,6-diazabicyclo[3.1.1]heptan-3-yl)-2-methyl-3-pyridyl]methyl]-4-methyl-3,4,6,7,9,9a-hexahydro-1H-pyrazino[1,2-a]pyrazin-2-yl]-2-deuterio-quinoline-8-carbonitrile] | 7.89 | –
16 | Cc1nc(N2CCNC[C@@H]2C)ccc1CN1CCN2[C@@H](C1)CN(c1ccc(C#N)c3ncccc13)C[C@H]2C [Example 85, 5-[(4R,9aS)-4-methyl-8-[[2-methyl-6-[(2S)-2-methylpiperazin-1-yl]-3-pyridyl]methyl]-3,4,6,7,9,9a-hexahydro-1H-pyrazino[1,2-a]pyrazin-2-yl]quinoline-8-carbonitrile] | 7.72 | –
17 | [2H]c1ccc2c(N3C[C@@H]4CN(Cc5cnc(N6C[C@@H]7C[C@H]6CN7)cc5C)CCN4[C@H](C)C3)ccc(C#N)c2n1 [Example 94, 5-[(4R,9aS)-8-[[6-[(1S,4S)-2,5-diazabicyclo[2.2.1]heptan-2-yl]-4-methyl-3-pyridyl]methyl]-4-methyl-3,4,6,7,9,9a-hexahydro-1H-pyrazino[1,2-a]pyrazin-2-yl]-2-deuterio-quinoline-8-carbonitrile] | 7.60 | –
18 | [2H]c1ccc2c(N3C[C@@H]4CN(Cc5cnc(N6CCNCC6)cc5C)CCN4[C@H](C)C3)ccc(C#N)c2n1 [Example 87, 5-[(4R,9aS)-4-methyl-8-[(4-methyl-6-piperazin-1-yl-3-pyridyl)methyl]-3,4,6,7,9,9a-hexahydro-1H-pyrazino[1,2-a]pyrazin-2-yl]-2-deuterio-quinoline-8-carbonitrile] | 7.77 | –
